Laboratory results published in US20240366540A1, “MITOFUSIN INHIBITORS AND USES THEREOF” (Albert Einstein College of Medicine, priority 2021, published 2024).

Key:
[1] = test system: MFN1 and MFN2; assay: MFN1 and MFN2 gene expression and protein levels; format: cell-based
Experimental: Western blot. Western blots were performed from whole cell lysates (WCL) prepared in lysis buffer containing 50 mM Tris-HCl pH 7.5, 1% Triton X-100, 150 mM NaCl, 5 mM MgCl2, 1 mM EGTA and 10% glycerol in the presence of protease inhibitor cocktail (Roche).
Analysis of mitochondrial biogenesis-related genes by q-PCR. Total RNA was extracted by using RNeasy Mini Kit (Qiagen) followed by cDNA synthesis using the SuperScript IV VILO Master Mix (Thermo Scientific), both performed according to the manufacturer's protocol. q-PCR was performed using the following primers: […]
For the q-PCR reaction, Power SYBR Green master mix (Thermo Scientific) was used according to the manufacturer's instructions. Briefly, each reaction consisted of 10 ng cDNA, 5 μL Power SYBR Green master mix, 200 nM primers (forward and reverse), and RNase-free water up to 10 μL. q-PCR was performed on the ViiA 7 Real-Time PCR System (Thermo Scientific) with the following cycle parameter: 95° C. for 10 min, 40 cycles of 95° C. for 15 s, and 60° C. for 1 min. q-PCR products were analyzed by melting curves for unspecific products or primer dimer formation. Rpl39 was used as housekeeping gene and 2^−ΔΔCT method was applied to determine the relative mRNAs expression.

[2] = test system: MEFs; assay: Mitochondrial respiration in cellulo (OCR, Seahorse XF24); format: cell-based, mouse; settings: WT MEFs; MASM7 1 μM or MFI8 20 μM, 6 hrs
Experimental: Mitochondrial respiration in cellulo. Mitochondrial oxygen consumption rates (OCR) were assessed using a XF24 Analyzer (Seahorse Biosciences, Billerica MA, USA). In brief, 3×10^4 MEFs were cultured in a XF24 cell culture microplate containing DMEM supplemented with 10% fetal bovine serum. […] OCR was normalized to cell number or total protein content per well for each condition tested.

[3] = test system: MEFs; assay: Mitochondrial depolarization assay (TMRE membrane potential); format: cell-based, mouse
Experimental: Mitochondrial depolarization assay (mtΔΨ). MEFs (10^4 cells/well) were seeded in a 96-well black plate and treated with MASM7 or MFI8 for 6 hrs. Following treatments, cells were stained with 250 nM TMRE (Sigma; Cat. 87917) for 20 min at 37° C. Subsequently, cells were washed with thrice with PBS. Fluorescence intensity was detected by a M100 microplate reader (TECAN, Ex: 540 nm/Em: 579 nm).

[4] = test system: MEFs; assay: RNA-seq gene expression; format: cell-based, mouse
Source text: RNA-seq. Sequencing results were demultiplexed and converted to FASTQ format using Illumina bcl2fastq software. The sequencing reads were adapter and quality trimmed with Trimmomatic and then aligned to the mouse genome (build mm10/GRCm38) using the splice-aware STAR aligner. The featureCounts program was utilized to generate counts for each gene based on how many aligned reads overlap its exons. These counts were then normalized and used to test for differential expression using negative binomial generalized linear models implemented by the DESeq2 R package.

[5] = test system: MOLM13 cells; assay: Caspase 3/7 activation in MOLM13 cells with AMG-176; format: cell-based; settings: increasing concentrations of AMG-176 and MFI8
Experimental: Caspase-3/7 activation assay. Cells (5×10^3 cells/well) were seeded in a 96-well white plate and treated with MASM7, MFI8. Caspase 3/7 activation was measured after 6 hr by addition of the Caspase-Glo 3/7 reagent according to the manufacturer's protocol (Promega). Luminescence was detected by a F200 PRO microplate reader (TECAN). Caspase assays were performed in at least triplicate and the data normalized to vehicle-treated control wells. Dilutions of MASM7 or MFI8 were performed using a TECAN D300e Digital Dispenser from 10 mM stocks.

[6] = test system: THP-1 cells; assay: Cell death with BV6 in THP-1 cells; format: cell-based
Experimental: Cell death assay. Cells (2×10^5 cells/well) were seeded in a 6-well plate and treated with the indicated drugs for 6 hours. Cells were dissociated using Accutase (Thermo Fisher; Cat. #00-4555-56) in order to avoid accidental exposure of phosphatidylserine on the outer plasma membrane. Cell death was evaluated with Dead Cell Apoptosis Kit with Annexin V Alexa Fluor™ 488 & Propidium Iodide (Thermo Fisher; Cat. #V13241) according to manufacturer's protocol. Data was acquired by BD LSRII flow cytometer system using BD FACSDiva software. Data was analyzed by FlowJo (BD).

[7] = test system: cells; assay: Cell viability assay (CellTiter-Glo); format: cell-based; settings: 72 hours
Experimental: Cell viability assay. […] Cell viability was assayed after 72 hrs by addition of CellTiter-Glo reagent according to the manufacturer's protocol (Promega). Luminescence was measured using a […] microplate reader (TECAN). Viability assays were performed in at least triplicate and the data normalized to vehicle-treated control wells.

[8] = test system: BXPC3 cells; assay: Cell viability, pancreatic cancer cells; format: cell-based; settings: BXPC3, 72 hr, Cell titer Glo
Experimental: (§1) Cell titer Glo was used to measure viability. Cells were treated with MFI8 for 72 hr (n=3, mean±SD).
(§2) Cell viability assay. Cells (5×10^3 cells/well) were seeded in a 96-well white plate and treated with serial dilutions of MASM7 or MFI8. Cell viability was assayed after 72 hrs by addition of CellTiter-Glo reagent according to the manufacturer's protocol (Promega). Luminescence was measured using a F200 PRO microplate reader (TECAN). Viability assays were performed in at least triplicate and the data normalized to vehicle-treated control wells. Dilutions of MASM7 or MFI8 were performed using a TECAN D300e Digital Dispenser from 10 mM stocks.

[9] = test system: Calu-6 cells; assay: Cell viability, lung cancer cells; format: cell-based; settings: Calu-6, 72 hr, Cell titer Glo
Experimental: as §1, §2

[10] = test system: H2405 cells; assay: Cell viability, lung cancer cells; format: cell-based; settings: H2405, 72 hr, Cell titer Glo
Experimental: as §1, §2

[11] = test system: MEFs; assay: DNA damage, yH2AX immunofluorescence in MEFs; format: cell-based, mouse; settings: 6 h
Experimental: Immunofluorescent analysis and microscopy. […] After treatments, cells were washed with PBS and fixed with 4% PFA for 15 min. […] After incubation with primary antibodies, cells were washed with PBS and incubated with the appropriate mouse secondary antibody (ThermoFisher Scientific; A-11001) in the blocking solution. After PBS washes, coverslips were dipped in water and mounted on glass slides using Vectashield containing DAPI (Vector laboratories). […] Data were analyzed with ImageJ.

## Cc1cccc(NC(C)c2cc(Cl)ccc2O)c1C (stereo not drawn) [MFI8, 4-Chloro-2-(1-((2,3-dimethylphenyl)amino)ethyl)phenol]
[1]
  MFN1 and MFN2 gene expression and corresponding protein levels: neither MASM7 nor MFI8 altered
[2]
  respiration and mitochondrial ATP production (OCR): reduced respiration and mitochondrial ATP production
[3]; MFN1/MFN2 DKO MEFs reconstituted with L692A MFN2
  mitochondrial membrane potential (TMRE): not when reconstituted with L692A MFN2
[3]; MFN1/MFN2 DKO MEFs reconstituted with WT MFN2
  mitochondrial membrane potential (TMRE): significantly decreased mitochondrial membrane potential
[3]; WT MEFs, 6 hrs
  mitochondrial membrane potential (TMRE): concentration responsively decreased mitochondrial membrane potential
[4]; MEFs
  expression of genes involved in DNA damage response: up-regulated several genes that are involved in DNA damage response
[4]; RNA-seq
  gene expression of subunits of the respiratory complexes: reduced the gene expression of several nuclear-encoded subunits of the respiratory complexes
[5]
  caspase 3/7 activation in response to AMG-176: sensitizes cells to caspase activation
[6]
  cell death in combination with BV6: synergistically induce cell death
[7]
  cellular viability: neither MFI8 nor MASM7 decreased cellular viability
[8]
  viability: concentration responsively reduces viability
[9]
  viability: concentration responsively reduces viability
[10]
  viability: concentration responsively reduces viability
[11]; MFN1/MFN2 DKO MEFs
  DNA damage (yH2AX foci): not in MFN1/MFN2 DKO MEFs
[11]; WT MEFs
  DNA damage (yH2AX foci): increased yH2AX foci in WT MEFs
